Here are results for 51 molecules from patent US12465603B2, “Phthalazinone based modulators for the treatment of disease” (Soley Therapeutics, Inc., priority 2022, dated 2025).

Assay [1] concerns A2058 (ATCC, CRL-11147) cells. The assay is described as follows: Cell viability assay (Cell Titre Glo, 72 hours) in A2058 cells. The settings on record: Homo sapiens. Format: cell-based. As for the experimental part: (§1) Example 31: Cell Viability Assays
(§2) Phthalazinone based modulators as described herein were dispensed into 384 well CulturPlates™ (PerkinElmer) using Echo 555 acoustic dispensing in 10-point dose response curves at a final top concentration of 30 μM following a 1 in 3 dilution series. A2058 (ATCC, CRL-11147) or PA1 (ECACC, 90013101) cells were added directly to a compound at a density of 5000 cells per well in a final volume of 50 μL and incubated for 72 hours at 37° C., 5% CO2. Viability was assessed using Cell Titre Glo® (Promega) according to the manufacturer's instructions (25 μL per well) and IC50 curves were generated for each inhibitor using IDBS ActivityBase data analysis software.

Assay [2] has as its system PA1 (ECACC, 90013101) cells. The assay is described as follows: Cell viability assay (Cell Titre Glo, 72 hours) in PA1 cells. Format: cell-based. The note with it: Homo sapiens, PA-1. As for the experimental part: as §1, §2

Bounds are passed on as bounds.

On to `CCn1nc(C(=O)N2CCN(c3cccc(C(F)(F)F)c3)CC2)c2ccccc2c1=O` [Compound 81, 2-ethyl-4-(4-(3-(trifluoromethyl)phenyl)piperazine-1-carbonyl)phthalazin-1(2H)-one], for which the IC50 in assay [1] was 1 to 10 µM; in assay [2], not above 1 µM.
For `CCOc1ccc(F)cc1N1CCN(C(=O)c2nn(C)c(=O)c3ccccc23)CC1` [Compound 48], the 50% inhibitory concentration (IC50) in assay [1] and in assay [2] was not above 1 µM each time.
Consider `COCc1cncc(N2CCN(C(=O)c3nn(C)c(=O)c4ccc(F)cc34)CC2)c1` [Compound 164], for which the IC50 in assay [1] and in assay [2] was more than 20 µM throughout.
Turning to `CCn1nc(C(=O)N2CCN(c3ncc(F)cc3C)CC2)c2ccccc2c1=O` [Compound 87], the IC50 in assay [1] and in assay [2] was more than 20 µM in each case.
With `Cn1nc(C(=O)N2CCN(c3ccccc3C3CC3)CC2)c2ccncc2c1=O` [Compound 181], the IC50 in assay [1] and in assay [2] was not above 1 µM in each case.
In the case of `Cc1cccc(N2CCN(C(=O)c3nn(C)c(=O)c4ccccc34)CC2)c1` [Compound 25], the IC50 in assay [1] and in assay [2] was not above 1 µM each time.
For the molecule `CC(C)Oc1cc(F)ccc1N1CCN(C(=O)c2nn(C)c(=O)c3ccccc23)CC1` [Compound 59], the IC50 in assay [1] and in assay [2] was 1 to 10 µM in each case.
Take `COc1ccccc1C1(C)CCN(C(=O)c2nn(C)c(=O)c3ccccc23)CC1` [Compound 249, 4-(4-(2-methoxyphenyl)-4-methylpiperidine-1-carbonyl)-2-methylphthalazin-1(2H)-one]: the IC50 in assay [1] and in assay [2] was 1 to 10 µM in each case.
Turning to `Cn1nc(C(=O)N2CCN(c3ncccc3C3CC3)CC2)c2ccccc2c1=O` [Compound 17], the 50% inhibitory concentration (IC50) in assay [1] and in assay [2] was not above 1 µM in each case.
In the case of `COc1ncc(F)cc1N1CCN(C(=O)c2nn(C)c(=O)c3ccccc23)CC1` [Compound 75], the IC50 in assay [1] and in assay [2] was not above 1 µM throughout.
In the case of `O=C(c1nn(CC(F)(F)F)c(=O)c2ccccc12)N1CCN(c2ccccc2)CC1` [Compound 6], the IC50 in assay [1] and in assay [2] was more than 20 µM each time.
`O=C(c1nn(C2CC2)c(=O)c2ccccc12)N1CCN(c2ccccc2)CC1` [Compound 9, 2-cyclopropyl-4-(4-phenylpiperazine-1-carbonyl)phthalazin-1-one]: the 50% inhibitory concentration (IC50) was 1 to 10 µM in assay [1] and not above 1 µM in assay [2].
The corresponding values for `CCOc1cc(F)ccc1N1CCN(C(=O)c2nn(C)c(=O)c3ccccc23)CC1` [Compound 58] are 1 to 10 µM and not above 1 µM.
The corresponding values for `Cn1nc(C(=O)N2CCN(c3cccc(C#N)c3)CC2)c2ccccc2c1=O` [Compound 49] are not above 1 µM and not above 1 µM.
The like results for `CCn1nc(C(=O)N2CCN(c3cc(Cl)cc(C#N)c3)CC2)c2cc(F)ccc2c1=O` [Compound 237] were, in that order, not above 1 µM and not above 1 µM.
In the case of `CN1CCc2cccc(N3CCN(C(=O)c4nn(C)c(=O)c5ccccc45)CC3)c21` [Compound 79], the IC50 in assay [1] and in assay [2] was 10 to 20 µM throughout.
For the molecule `Cn1nccc1N1CCN(C(=O)c2nn(C)c(=O)c3ccccc23)CC1` [Compound 227], the IC50 in assay [1] and in assay [2] was more than 20 µM throughout.
With `Cc1cncc(N2CCN(C(=O)c3nn(C)c(=O)c4ccc(Cl)cc34)CC2)c1` [Compound 245, 6-chloro-2-methyl-4-(4-(5-methylpyridin-3-yl)piperazine-1-carbonyl)phthalazin-1(2H)-one], the IC50 in assay [1] was more than 20 µM; in assay [2], 10 to 20 µM.
The like results for `CCn1nc(C(=O)N2CCN(c3cccc(C#N)c3)CC2)c2ccccc2c1=O` [Compound 207] were, in that order, not above 1 µM and not above 1 µM.
For the molecule `CCn1nc(C(=O)N2CCN(c3c(C)cnc4ccccc34)CC2)c2ccccc2c1=O` [Compound 123], the IC50 in assay [1] and in assay [2] was more than 20 µM in each case.
On to `CCn1nc(C(=O)N2CCN(c3cncnc3OC)CC2)c2ccccc2c1=O` [Compound 83], for which the figures for the IC50 in assay [1] and in assay [2] were 1 to 10 µM and not above 1 µM, respectively.
As for `Cn1nc(C(=O)N2CCN(c3cccc4c3OCC4)CC2)c2ccccc2c1=O` [Compound 52], the concentration for half-maximal inhibition (IC50) in assay [1] and in assay [2] was not above 1 µM in each case.
For the molecule `CCn1nc(C(=O)N2CCN(c3ccccc3C)CC2)c2ccccc2c1=O` [Compound 102], the concentration for half-maximal inhibition (IC50) in assay [1] and in assay [2] was not above 1 µM each time.
In the case of `Cn1nc(C(=O)N2CCN(c3cc(Cl)cc(C#N)c3)CC2)c2ccccc2c1=O` [Compound 225], the IC50 in assay [1] and in assay [2] was not above 1 µM throughout.
`Cn1nc(C(=O)N2CCN(c3ccccn3)CC2)c2ccccc2c1=O` [Compound 31]: the IC50 in assay [1] and in assay [2] was more than 20 µM throughout.
On to `CCn1nc(C(=O)N2CCN(c3cccc(C#N)c3OC)CC2)c2ccccc2c1=O` [Compound 151, 3-(4-(3-ethyl-4-oxo-3,4-dihydrophthalazine-1-carbonyl)piperazin-1-yl)-2-methoxybenzonitrile], for which the IC50 in assay [1] lay within 10 to 20 µM; in assay [2], 1 to 10 µM.
Consider `Cn1nc(C(=O)N2CCN(c3cccnc3)CC2)c2ccccc2c1=O` [Compound 32], for which the IC50 in assay [1] and in assay [2] was more than 20 µM each time.
For `CCn1nc(C(=O)N2CCN(c3c(C)cccc3OC)CC2)c2ccccc2c1=O` [Compound 154], the half-maximal inhibitory concentration (IC50) in assay [1] and in assay [2] was 1 to 10 µM each time.
Regarding `CCn1nc(C(=O)N2CCN(c3cncnc3C3CC3)CC2)c2ccccc2c1=O` [Compound 122], the 50% inhibitory concentration (IC50) is 1 to 10 µM in assay [1] and not above 1 µM in assay [2].
Turning to `Cn1nc(C(=O)N2CCN(c3ccncc3)CC2)c2ccccc2c1=O` [Compound 28], the half-inhibitory concentration (IC50) in assay [1] and in assay [2] was more than 20 µM in each case.
Regarding `COc1ccnc(N2CCN(C(=O)c3nn(C)c(=O)c4ccccc34)CC2)n1` [Compound 72], the IC50 in assay [1] and in assay [2] was 1 to 10 µM each time.
`CCn1nc(C(=O)N2CCN(c3cnccc3OC)CC2)c2cc(F)ccc2c1=O` [Compound 236, 2-ethyl-6-fluoro-4-(4-(4-methoxypyridin-3-yl)piperazine-1-carbonyl)phthalazin-1(2H)-one]: the 50% inhibitory concentration (IC50) in assay [1] and in assay [2] was not above 1 µM each time.
`CCn1nc(C(=O)N2CCN(c3ccc(F)cc3C3CC3)CC2)c2ccccc2c1=O` [Compound 119]: the IC50 in assay [1] and in assay [2] was not above 1 µM throughout.
Regarding `COc1cc(F)cc(N2CCN(C(=O)c3nn(C)c(=O)c4ccncc34)CC2)c1` [Compound 176], the IC50 in assay [1] and in assay [2] was not above 1 µM each time.
Consider `Cn1nc(C(=O)N2CCN(c3ccc4ccnn4c3)CC2)c2ccccc2c1=O` [Compound 203], for which the IC50 in assay [1] and in assay [2] was more than 20 µM in each case.
For `COc1cnccc1N1CCN(C(=O)c2nn(C)c(=O)c3ccccc23)CC1` [Compound 15], the IC50 in assay [1] was 1 to 10 µM; in assay [2], not above 1 µM.
The corresponding values for `Cc1cc(C)cc(N2CCN(C(=O)c3nn(C)c(=O)c4ccncc34)CC2)c1` [Compound 215] are 1 to 10 µM and not above 1 µM.
Take `CCn1nc(C(=O)N2CCN(c3cc(OC)c(Br)cn3)CC2)c2ccccc2c1=O` [Compound 89]: the IC50 in assay [1] and in assay [2] was more than 20 µM each time.
With `CCn1nc(C(=O)N2CCN(c3cc(F)ccc3OC)CC2)c2ccccc2c1=O` [Compound 121], the IC50 in assay [1] and in assay [2] was not above 1 µM each time.
For the molecule `COc1cc(C#N)cc(N2CCN(C(=O)c3nn(C)c(=O)c4ccncc34)CC2)c1` [Compound 216], the IC50 in assay [1] and in assay [2] was not above 1 µM throughout.
On to `Cn1nc(C(=O)N2CCN(c3ccccc3)CC2)c2ccncc2c1=O` [Compound 171, 3-methyl-1-(4-phenylpiperazine-1-carbonyl)pyrido[3,4-d]pyridazin-4-one], for which the 50% inhibitory concentration (IC50) in assay [1] and in assay [2] was more than 20 µM throughout.
Consider `Cc1cc(C)cc(N2CCN(C(=O)c3nn(C)c(=O)c4ccccc34)CC2)c1` [Compound 205], for which the IC50 in assay [1] and in assay [2] was not above 1 µM throughout.
For the molecule `CCn1nc(C(=O)N2CCN(c3cc(F)cc(C#N)c3)CC2)c2cnccc2c1=O` [Compound 241, 3-(4-(2-ethyl-1-oxo-1,2-dihydropyrido[3,4-d]pyridazine-4-carbonyl)piperazin-1-yl)-5-fluorobenzonitrile], the 50% inhibitory concentration (IC50) in assay [1] and in assay [2] was not above 1 µM throughout.
`Cn1nc(C(=O)N2CCN(c3cc(F)cc(C#N)c3)CC2)c2cc(F)ccc2c1=O` [Compound 212]: the IC50 in assay [1] and in assay [2] was not above 1 µM each time.
As to `CC(C)n1nc(C(=O)N2CCN(c3ccccc3)CC2)c2ccccc2c1=O` [Compound 4], the half-inhibitory concentration (IC50) in assay [1] was more than 20 µM; in assay [2] it was 10 to 20 µM.
Regarding `COc1cc(F)cc(N2CCN(C(=O)c3nn(C)c(=O)c4cnccc34)CC2)c1` [Compound 180], the IC50 in assay [1] was 1 to 10 µM; in assay [2], not above 1 µM.
Take `Cn1nc(C(=O)N2CCN(c3nccnc3C3CC3)CC2)c2ccccc2c1=O` [Compound 21]: the figures for the IC50 in assay [1] and in assay [2] were more than 20 µM and 1 to 10 µM, respectively.
As to `Cn1nc(C(=O)N2CCN(c3ccccc3F)CC2)c2ccccc2c1=O` [Compound 30], the half-inhibitory concentration (IC50) in assay [1] and in assay [2] was 1 to 10 µM in each case.
Regarding `Cn1nc(C(=O)N2CCN(c3cccc(F)c3)CC2)c2ccccc2c1=O` [Compound 33], the IC50 in assay [1] and in assay [2] was not above 1 µM in each case.
Consider `CCn1nc(C(=O)N2CCN(c3ncc(F)cc3OC)CC2)c2ccccc2c1=O` [Compound 114], for which the IC50 in assay [1] was 1 to 10 µM; in assay [2], not above 1 µM.
The corresponding values for `COc1cccnc1N1CCN(C(=O)c2nn(C)c(=O)c3ccccc23)CC1` [Compound 14] are 1 to 10 µM and not above 1 µM.

The IC50 is the concentration needed to halve the response being measured.
